Reference: patent publication US20080319181A1, “Method of Making an Artificial Nuclease for Anti-viral, Anti-bacterial Applications” (The Government of the United States of America, as …, priority 2004, published 2008)

What was measured:
Assay type in all cases: biochemical
luciferase mRNA = test: Hydrolysis of RNA, denaturing agarose gel electrophoresis; conditions: 1 to 5 mM; 24 h at 25° C. in HBS (FIG. 5)
Method: The direct interaction of Co(III)-cycmmb with luciferase mRNA was analyzed by denaturing agarose gel electrophoresis. mRNA template (2 μg at a final concentration of 0.4 mg/mL) was incubated with varying concentrations (1 to 5 mM) of activated Co(III)-cycmmb for 24 h at 25° C. in 5 μL of HBS. Following the incubation, the reactions were analyzed by electrophoresis on a 2% denaturing agarose gel run for 4 h at 40 V. The gel was stained with RiboGreen (Molecular Probes), visualized by UV illumination, and images were quantified using Scion Image using the control incubation (no Co(III)-cycmmb) as a standard (see FIG. 5).

[1] = Hydrolysis of BNPP by cobalt cyclen complexes (2nd order rate constants); conditions: 50° C., activation using sodium hydroxide
Method: The hydrolysis of BNPP by both Cocyc and 2 at 50° C., following activation using sodium hydroxide, has been measured (see Table 1). The second-order rate constants at pH 8.2 for both cyclen and 2 were similar at 14 and 12 M^−1 min^−1, respectively. The rate increased at pH 7.3 to a value of 19 M^−1 min^−1 for cyclen as compared to the published value of 2.8 M^−1 min^−1 at pH 7 (Chin, J.; Banaszczyk, M.; Jubian, V.; Zou, X. J. Am. Chem. Soc. 1989, 111, 186-190, the entire contents of which is incorporated herein by reference). The difference between the published value and ours can be attributed to different experimental conditions, such as buffer. pH, and the ratio of catalyst to substrate.
The much lower hydrolysis rate shown at pH 7.3 for Cocycmba is surprising. In order to determine whether the differences observed were mainly due to the carboxylic acid or to the presence of the benzene ring, the kinetics of 3 were measured at pH 7.3 and found to be 14 M^−1 min^−1, which is much closer to the Cocyc rate. Methylation of the benzoic acid takes away both the negative charge and an ability to effectively hydrogen bond. Therefore the results imply that the behavior of 2 can be mostly ascribed to the presence of the additional charge and the potential for hydrogen bonding. For example, the acid dissociation constants of cyclen of 5.6 and 8.0 mean that between pH 8.2 and 7.3 complexes 1 and 2 should convert from predominantly the dihydroxo to the aquo-hydroxo form (see FIG. 2). Since the benzoic acid is in the benzoate form (pKa 4.2), the increasing net positive charge at pH 7.3 of the coordination site may allow the benzoate to approach closer to Co(III) and interfere with the hydrolysis of BNPP.

pBluescript plasmid DNA = test: Hydrolysis (nicking) of plasmid DNA, agarose gel; conditions: pH 7; 5 mM cobalt complex; 0.1M MOPS; 37° C., approximately 16 hours; NIH Image
Method: DNA was digested with cocycmba and cocycmmb at three pH conditions (FIG. 3). Hydrolysis of the phosophodiester bonds of the double stranded (ds) plasmid DNA should lead to a conversion from the covalently closed supercoiled form to the nicked form of the plasmid. […] Plasmid DNA digested with a nicking enzyme (lane 1 FIG. 3) confirms that the slower moving band observed in digests with the cobalt catalysts is the nicked form of the plasmid.
Digests run overnight at 37° C. for approximately 16 hours on a 1.5% agarose gel. Controls with no cobalt catalyst were always run in parallel. b) 5 mM cocycmmb and 1.19 μg (0.168 mM bp) pBluescript plasmid DNA in 0.1M MOPS buffer at pH 7, 8, and 10 run under identical conditions. 1=Nickase+DNA, 2=DNA. 3=Cobalt complex+DNA at pH 7.4=pH 7 control, 5=Cobalt complex+DNA at pH 8, 6=pH 8 control, 7=Cobalt complex+DNA at pH 10, 8=pH 10 control Nickase reactions were performed at pH 7 using a 4 hour, 37° C. incubation of 1.18 μg pBluescript plasmid DNA.

Luciferase control-RNA = test: Western blot analysis of effect on protein translation (Rabbit Reticulocyte Lysate)
Method: Luciferase control-RNA (at a final concentration of 0.4 ug/mL) was incubated with increasing concentrations of Cocycmmb for 24 h in 1× HBS buffer (pH 7.4) for 24 h. After the incubation period, the RNA template was translated into luciferase protein using the Rabbit Reticulocyte Lysate translation system (Promega) according to the manufacturer's instructions. After translation, the reaction was analyzed by reducing SDS-PAGE and western blotting to monitor the presence of the 60 kDa luciferase protein product. An aliquot (3 uL) of the translation reaction was run on a 10% NuPAGE Bis-Tris polyacrylamide gel under reducing conditions and transferred to a solid support membrane (PVDF). The membrane was blocked for 1 h in TBS-T (TBS containing 0.05% Tween) and subsequently incubated for 1 h with a 1:2500 dilution of a streptavidin-alkaline phosphatase conjugate. Detection was achieved by exposing the membrane to Western Blue substrate for alkaline phosphatase.
RNA incubations were done as described above except that the Cocycmmb concentration was held constant at 5 mM (and, more recently, down to 0.05 mM) and incubated for varying amounts of time that spanned 24 h. SDS-PAGE and Western blotting were done as described above.

Molecule: COC(=O)c1ccc(CN2CCNCCNCCNCC2)cc1.COS(=O)(=O)[O-].[Cl-].[Cl-].[Co+3] [Cocycmmb, Dichloro{methyl 4-[(1,4,7,10-tetraazacyclododec-1-yl)methyl]-benzoate}cobalt (III) methylsulfate]
- hydrolysis of RNA (luciferase mRNA): hydrolyze RNA
- 2nd Order Rate Constants, hydrolysis of BNPP ([1]; pH 7.3): 0.233 M⁻¹ s⁻¹
- 2nd Order Rate Constants, hydrolysis of BNPP ([1]; pH 8.2): 0.183 M⁻¹ s⁻¹
- nicked product (pBluescript plasmid DNA): 43%
- inhibition of protein production (Luciferase control-RNA; 0.25 mM, 10 minutes incubation time): significant inhibition of protein production
- luciferase protein band in the Western blot (Luciferase control-RNA; as a function of Cocycmmb concentration and of time of contact with the RNA (FIG. 4)): absence of the protein band

Molecule: dichloro(4-[1,4,7,10-tetraazacyclotetradec-1-yl]methylbennzoic acid)cobalt(III) chloride [Cocycmba]
- 2nd Order Rate Constants, hydrolysis of BNPP ([1]; pH 7.3): 0.045 M⁻¹ s⁻¹
- 2nd Order Rate Constants, hydrolysis of BNPP ([1]; pH 8.2): 0.2 M⁻¹ s⁻¹
- nicked product (pBluescript plasmid DNA): 25%
